Measured values from article PMC8154566, “Scaffold-Hopping Strategy on a Series of Proteasome Inhibitors Led to a Preclinical Candidate for the Treatment of Visceral Leishmaniasis” (Journal of Medicinal Chemistry, 2021).
Values after ≈ are worked out from the molar mass of the structure shown. Like-named read-outs stand apart in the source and are kept apart here. Marks after values point to notes of the source that are not given here.

Columns and labels:
L. donovani amastigotes [1] = assay: INMAC assay: intramacrophage L. donovani in differentiated THP-1 cells; assay type: cell-based, Leishmania donovani; conditions: Leishmania donovani, THP-1, INMAC
Summary of the method: (§1)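 Intramacrophage L. donovani amastigotes in differentiated THP-1 cells, run per an earlier protocol but with 96 h compound exposure instead of 72 h. Aqueous solubility also follows a previously described method.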

[2] = system: infected mouse model of VL; assay: Infected mouse model of VL; assay type: in vivo; conditions: 50 mg/kg ip, b.i.d for 5 days
Procedure: In vivo Mouse Efficacy Studies. In vivo studies were carried out as previously described, with minor modifications.7 Briefly: Control drug used was Miltefosine (30 mg/kg orally, twice daily for 5 days), vehicle used was 10% (v/v) dimethyl sulfoxide (DMSO), 40% polyethylene glycol 400, and 50% deionized water (10 Ml/kg orally, twice daily for 5 days) and mice were treated with test compound intraperitoneally (50 mg/kg twice daily for 5 days).

[3] = set-up: method as in PMID 30962368; conditions: after 3 h; cited from earlier work
[4] = set-up: method as in PMID 30962368; conditions: cited from earlier work
THP-1 cells = conditions: cited from earlier work; for THP1 pIC50: supplementary csv, flagged as reported previously in the main tables
[5] = set-up: method as in PMID 30962368; conditions: after 3 h; cited from earlier work; remark: listed apart in the source
[6] = Kinetic aqueous solubility by CLND; assay type: physicochemical; conditions: CLND
Summary of the method: as §1

in vivo = assay type: in vivo; conditions: mouse
Procedure: Intramacrophage L. donovani Assay. This assay was conducted as previously described, except for compound exposure time, which was 96 h instead of 72 h.4 […]
All regulated procedures on living animals were carried out under the authority of a project license issued by the Home Office under the Animals (Scientific Procedures) Act 1986, as amended in 2012 (and in compliance with EU Directive EU/2010/63). Infected animals had access to food and water ad libitum and were housed under a 12 hour light/dark photoperiod. Animals used in these experiments were female NMRI and Balb/c mice (Harlan, UK).
Test compound DDD01008714 was dosed orally (P.O.) at 10 mg free base/kg (dose volume 10 mL/kg; dose vehicle: 10% (vol/vol) dimethyl sulfoxide (DMSO), 40% polyethylene glycol 400 (PEG400) and 50% deionized water) to female NMRI mice (n = 3) or intravenously (I.V.) at 3 mg free base/kg (dose volume 5 mL/kg; dose vehicle: 10% (vol/vol) dimethyl sulfoxide (DMSO) and 90% Saline) to female Balb/c mice (n = 3). Blood samples (10 μL) where taken from the tail vein of […]
samples for I.V. leg only) and mixed with two volumes of deionized water (20 μL). After suitable sample preparation, the concentration of test compound in the whole blood from treated mice was determined by UPLC-MS/MS using a Quattro Premier XE (Waters, USA). Pharmacokinetic parameters were derived from the mean blood concentration time curve using PK solutions software v 2.0 (Summit Research Services, USA). […]
of concentration vs. Time for 4, dosed at 10 mg/kg. Extrapolated to 50 mg/kg assuming a linear dose increase, showing potential coverage above EC90 for approximately 6 hours […]
(1 picture or pasted object on this page, not shown here)

[7] = cited from earlier work
L. donovani amastigotes [8] = conditions: cited from earlier work; for LdInMac pIC50: supplementary csv, flagged as reported previously in the main tables
[9] = supplementary csv; flagged as reported previously in Table 5; cited from earlier work
[10] = female, Balb/c, in vivo, iv PK 3 mg/kg
[11] = female, NMRI, in vivo, po PK 10 mg/kg

**Q.** Which EC90 (L. donovani amastigotes [1]; pEC90 5.7 expressed as concentration, read-out: EC90) does the source give for `O=C(Nc1ccc(F)c(-c2cn3cc(N4CCOCC4)cnc3n2)c1)N1CCCC1` [Compound 4] here?
**A.** 0.78 µg/mL

**Q.** And the EC90 (L. donovani amastigotes [1]; read-out: pEC90 (converted))?
**A.** 2000 nM

**Q.** And the “% reduction in parasitemia” value [2]?
**A.** 98%

**Q.** And the “mouse plasma stability, compound remaining” value [3]?
**A.** 100%

**Q.** And the Ames assay result [4]?
**A.** positive

**Q.** And the “THP-1 cells pEC50” value (THP-1 cells; Table 1)?
**A.** <4.3

**Q.** What about the “THP1 pIC50” value (THP-1 cells) of the same molecule?
**A.** <4.3

**Q.** And the “human plasma stability, compound remaining” value [5]?
**A.** 100%

**Q.** What about the solubility ([6]; Table 1, kinetic solubility, read-out: aqueous solubility) of the same molecule?
**A.** 150 µM (≈ 61.6 µg/mL)

**Q.** And the solubility ([6]; Table 2, kinetic, read-out: Aq. solubility)?
**A.** 150 µM (≈ 61.6 µg/mL)

**Q.** What about the AUC at 24 h (in vivo; [10]) of the same molecule?
**A.** 2250 ng·h/mL

**Q.** And the half-life at 24 h (in vivo; [10])?
**A.** 30 min

**Q.** What about the bioavailability at 24 h (in vivo; female, NMRI, in vivo, po PK 10 mg/kg vs iv 3 mg/kg) of the same molecule?
**A.** 57%

**Q.** What about the AUC at 24 h (in vivo; [11]) of the same molecule?
**A.** 4300 ng·h/mL

**Q.** And the Cmax at 24 h (in vivo; [11])?
**A.** 1300 ng/mL

**Q.** And the Tmax at 24 h (in vivo; [11])?
**A.** 30 min

**Q.** And the Clb (in vivo; iv PK 3 mg/kg)?
**A.** 22 mL/min/kg

**Q.** And the Vdss (in vivo; listed under po PK (10 mg/kg))?
**A.** 0.8 L/kg

**Q.** What about the “time with blood levels above EC90” value (in vivo; oral dose of 10 mg/kg) of the same molecule?
**A.** around 2 h

**Q.** And the CLi ([7]; Table 1, mouse liver microsomes)?
**A.** <0.5 mL/min/g

**Q.** And the “Mouse CLi” value ([7]; Table 2, mouse liver microsomes)?
**A.** <0.5^e mL/min/g

**Q.** What about the “Cli (mouse, ml/min/g)” value ([7]; supplementary csv, mouse, flagged as reported previously in the main tables) of the same molecule?
**A.** <0.5 mL/min/g

**Q.** And the “INMAC pEC50” value (L. donovani amastigotes [8]; Table 1, five independent replicates, SD ≤0.2)?
**A.** 6.2

**Q.** What about the “INMAC pEC50” value (L. donovani amastigotes [8]; Table 2) of the same molecule?
**A.** 6.2^e

**Q.** What about the “LdInMac pIC50” value (L. donovani amastigotes [8]) of the same molecule?
**A.** 6.2

**Q.** For `O=C(Nc1ccc(F)c(-c2nc3cc(N4CCOCC4)cnn3n2)c1)N1CCCC1` [Compound 24, N-(4-Fluoro-3-(7-morpholino-[1,2,4]triazolo[1,5-b]pyridazin-2-yl)phenyl)pyrrolidine-1-carboxamide], which “THP-1 pEC50” value (THP-1 cells; Table 5) is on record?
**A.** <4.3

**Q.** What about the “THP1 pIC50” value (THP-1 cells) of the same molecule?
**A.** <4.3

**Q.** And the “Aqueous Solubility” value [9]?
**A.** 420 µM

**Q.** And the “INMAC pEC50” value (L. donovani amastigotes [8]; Table 5)?
**A.** 6.1

**Q.** And the “LdInMac pIC50” value (L. donovani amastigotes [8])?
**A.** 6.1
